Measurements reported in PubChem BioAssay AID179 (DTP/NCI, 2004).
“And” between values parts separate entries of the source, which are not always exact repeats. Identical values can stand only once. The source made the active and inactive calls.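 The calls were made as follows: active = compounds giving half or more protection of infected cells from virus-caused growth loss, again on retest; inactive = the rest.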 Where a SMILES comes first, the peptide text is derived from it. Bridges are numbered along the chain shown (N, C = ends). The star is where a group is joined. Cbz = O=C(OCc1ccccc1)*; OBn = c1ccc(CO*)cc1

System: CEM cells HIV-1 protection, formazan growth assay
Assay: NCI AIDS Antiviral Assay
Conditions: for IC50: measured here: growth of uninfected CEM cells
Method in brief: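 Protection of CEM cells against HIV-1 was scored from cell growth (soluble formazan) across five concentrations, with parallel uninfected cells. Lack of protection may reflect toxicity.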

SMILES | outcome | EC50 | IC50
CC#CCC(OC(C)=O)c1ccccc1 (stereo not drawn) | inactive |  | 
Cc1nc(Cc2n[nH]c(C)n2)n[nH]1 |  | > 200 µM | > 200 µM
COC(=O)CCSSCCC(=O)OC |  | > 1050 µM | 182 µM
CNC(=S)/N=C(\N)N(C)C | inactive |  | 
CN1CC(c2ccccc2)N(CCCCN2CC(c3ccccc3)N(C)CC2c2ccccc2)CC1c1ccccc1 (stereo not drawn) |  | > 100 µM | 58.9 µM
O=C(O)CCC(NC(=O)c1ccc(OCc2nc3cc(C(F)(F)F)ccc3nc2-c2ccccc2)cc1)C(=O)O (stereo not drawn) |  | > 200 µM | > 200 µM
CCOC(=O)/C=C/SCCCC(=O)O |  |  | > 1150 µM and 1150 µM
O=C(Nc1cc2c(oc1=O)CCCCC2)c1ccccc1 |  | > 200 µM | > 200 µM
O=C1CSC(Cc2nc3ccccc3o2)=N1 |  | > 200 µM | 4.79 µM
COc1ccc(C2C3COc4ccccc4C3=NN2c2ccccc2)cc1 (stereo not drawn) |  | > 200 µM | > 200 µM
COc1ccc2c(c1)c1ccc3c(c1n2C)C(=O)C=CC3=O |  | > 89.1 µM | 2.95 µM
COc1cc(/C=C/C(=O)CC(=O)/C=C/c2ccc(O)c(O)c2)ccc1O |  | > 200 µM | 6.76 µM
CC(=O)/C=C1/C(=O)C(CC(C)C)=C1CC(C)C |  | 141 µM | > 200 µM
CN(C)c1ccc(C=C2C(=O)OC(C)(C)OC2=O)cc1 | inactive |  | 
O=C(N/N=C(\c1ccccc1)c1ccccn1)NC1CCCCC1 | inactive |  | 
CC(C)(C)[Si](C)(C)OCC1OC(n2ccc(=O)[nH]c2=O)C(O[Si](C)(C)C(C)(C)C)[C@@]12N[C@H](C(N)=O)CS2 (stereo partly drawn) |  | > 200 µM | 8.91 µM
C[C@]12CC[C@H](OC(=O)/C=C\c3ccc(N(CCCl)CCCl)cc3)CC1CC[C@@H]1C2CC[C@]2(C)NC(=O)CCC12 (stereo partly drawn) | inactive |  | 
CN(C)CC1CCCC(CN(C)C)C1=NO (stereo not drawn) | inactive |  | 
CN(N)P(=O)(c1ccccc1)N(C)N |  | > 1150 µM | 501 µM
CC(=O)c1ccc2c(c1)CC1(C2)Cc2cc3c(cc2C1=O)CCC3 (stereo not drawn) |  | > 200 µM | 14.5 µM
CC(Br)(c1ccccc1)[P+](c1ccccc1)(c1ccccc1)c1ccccc1 (stereo not drawn) |  | > 20 µM | 0.871 µM
CC(=O)OC1COC(n2c(=S)n(-c3ccccc3)c(=O)c3cc(Br)ccc32)C(OC(C)=O)C1OC(C)=O (stereo not drawn) |  | > 17 µM | > 17 µM

SMILES | outcome | EC50 | IC50
COc1ccc(/C=C2\N=C(c3ccccc3)N(Nc3nnc(NN4C(=O)/C(=C/c5ccc(OC)cc5)N=C4c4ccccc4)c4ccccc34)C2=O)cc1 | inactive |  | 
Cc1ccc(C(=O)/C=C/c2cccc([N+](=O)[O-])c2)cc1 |  | > 37.2 µM | > 37.2 µM
Nc1cc(Cl)ccc1SSc1ccc(Cl)cc1N |  | > 200 µM | 12 µM
C=C1C(OC(=O)C(OC(C)=O)C(c2ccccc2)N(C)C)C[C@H](O)[C@]2(C)C1C[C@@H]1CC(OC(C)=O)C(C)=C([C@@H](OC(C)=O)C2O)C1(C)C (stereo partly drawn) | inactive |  | 
C/C(=C/OS(=O)(=O)C(F)(F)F)c1ccccc1 |  | > 200 µM | 57.5 µM
O=C(C[n+]1ccccc1Br)c1ccc2ccccc2c1 |  | > 200 µM | 9.55 µM
C1CC[N+]2(C1)CC[N+]1(CCCC1)CC2 |  | > 200 µM | > 200 µM
CCOC(=O)C(=CNC(=S)Nc1cc(C)ccc1C)C(=O)OCC |  | > 200 µM | > 200 µM
O=C1/C(=C/c2cccc(Cl)c2)CCc2ccccc21 |  | > 10 µM | > 10 µM
O=C1C=CC=C/C1=C1\N=C(c2ccccc2OCC(=O)c2ccccc2)SS1 |  | > 50.1 µM | 4.27 µM
C1CCC(N=C(NC2CCCCC2)N2CCOCC2)CC1 |  | > 200 µM | 135 µM
COC(=O)C1CCC(=O)NCCCCC(NC(=O)C(CC(=O)OCc2ccccc2)NC(=O)OCc2ccccc2)C(=O)N1 (stereo not drawn) (Cbz-Asp(OBn)-Lys-Glu-OMe; lactam 2-3; configuration not given here) |  | > 200 µM | > 200 µM
COC(=O)C1=C(C(=O)OC)C2C(C)=CC(C)=CN2C(C(=O)OC)=C1C(=O)OC (stereo not drawn) |  | > 200 µM | > 200 µM
C[C@@H](c1ccccc1)N1C[C@@H](c2ccc3c(c2)OCO3)[C@@H]2C(=O)CCC[C@@H]21 |  | > 200 µM | 112 µM
O=C1NC(=S)SC1N=Nc1ccc(S(=O)(=O)Nc2ncccn2)cc1 (stereo not drawn) |  | > 200 µM | > 200 µM
Cc1nnc(Nc2ccccc2)o1 | inactive |  | 
C=C1C(=O)O[C@@H]2CC(C)C3C(O)CC(O)[C@@]3(C)C[C@H]12 (stereo partly drawn) |  | > 933 µM | 14.1 µM
COC(=O)C1C(C(=O)OC)C2N(c3ccccc3)C=NN2C1C(=O)c1ccccc1 (stereo not drawn) |  | 182 µM | > 200 µM
O=P(O)(O)C=C=C1CCCCC1 |  | > 200 µM | > 200 µM
CCOC(=O)C1=C(O)C(=O)c2ccoc2C1=O |  | > 79.4 µM | > 79.4 µM
COc1ccccc1C1=Nc2ccccc2N=C(c2ccccc2O)C1 |  | > 200 µM | 93.3 µM
C=C1C(O)CC[C@]2(C)C1C1OC(C)(C)O[C@]13CC(=O)C(C)=C([C@H]1OC(C)(C)OC12)C3(C)C (stereo partly drawn) |  | > 200 µM | > 200 µM
